{"source": "patent US6800465B2", "about": "“D-hydantoinase from Ochrobactrum anthropi” (priority 2001, dated 2004)", "molecules": {"B1": {"name": "hydantoinase: D-hydantoinase from Ochrobactrum anthropi, SEQ ID NO: 2; in Table 3 assayed in glutaraldehyde treated cells (protein, listed as Ochrobactrum anthropi)", "chain": "MAKVIKGGTVITADRTFKADVLIEGEKIVAVGDNLSGDEVIDASGCYIMPGGIDPHTHLQMPFMGTYSSDDFDTGTAAALAGGTTMVVDFVLPGSEGNLLEALQEWFQKAGKARTDYSFHMAITGWNERTFNEMAEVVKRGINTFKHFMAYKGALMVNDDEMFASFQRCAELGAMPLVHAENGDIVAQLQAKLMAEGNDGPEAHAYSRPPEVEGEATNRAIMIADQAGVPLYVVHVSCEQSHEAIRRARQKGMRVFGEPLIQHLTLDESEYHNRDWDYAARRVMSPPFRDKANQDSLWAGLAAGSLQCVATDHCAFTTEQKRYGIGNFTKIPNGTGGLEERMPVLWSRGVRTGRLTPNEFVAVTSTNIAKILNIYPQKGAVLPGADADLVIWDPEATRKVSAKTQHSSIDYNVFEGFELKGLPKMTLSRGRVAFDKGNVTAEPGDGRFIEREPNGAVNRALSQWKEIVAPRKVERSAEHMPIGV"}}, "key": {"hydantoinase [1]": {"tested_on": "hydantoinase", "assay": "Effect of substrate concentration on rate of conversion by glutaraldehyde treated cells", "assay_type": "biochemical, Ochrobactrum anthropi", "conditions": "pH 8.8, 42° C.; for % Conversion: 6 hours", "method": "Incubations were in 200 mM TAPS pH 8.8, 42° C. for 6 hours, and pH adjustments were made back to normal at least every hour."}, "hydantoinase [2]": {"tested_on": "hydantoinase", "assay": "Substrate specificity of purified recombinant hydantoinase", "assay_type": "biochemical, Ochrobactrum anthropi", "conditions": "purified recombinant enzyme from E. coli BL21, compound as substrate", "protocol": "E. coli BL21 containing the hydantoinase gene was grown as described in example 4.2. The cells were centrifuged and washed with 100 mM carbonate buffer pH 9.0 and resuspended in the same buffer and ruptured by sonication. The enzyme was purified as described in example 2. The purified enzyme was tested for substrate specificity with various hydantoins as substrate."}, "hydantoinase [3]": {"tested_on": "hydantoinase", "assay": "Effect of glutaraldehyde and acetone treatment of whole cells on hydantoinase activity", "assay_type": "biochemical, Ochrobactrum anthropi", "conditions": "treated whole cells; 10 mg/ml D,L-p-hydroxyphenyl hydantoin, pH 8.5, 42° C., 4 hours; Control (buffer only) = 1", "protocol": "Washed cell suspension 0.5 ml aliquots of culture was treated with 0.5 ml glutaraldehyde (G.A.) final concentration 2% in phosphate buffer pH 7.0, or with 0.5 ml G.A. 2% in phosphate buffer and 1 ml acetone, or with 0.5 ml acetone alone at room temperature for 10 minutes. The treated cells were washed with 10 ml 0.9% saline and then with saline +1 mg/ml ammonium sulfate and resuspended in 1 ml 100 mM TAPS buffer pH 8.5. Resuspended cell suspensions were incubated with 10 mg/ml D,L-p-hydroxyphenyl hydantoin in 100 mM TAPS pH 8.5 (final volume 800 μl) at 42° C. for 4 hours. Reactions were terminated with 200 μl TCA 12% and assayed."}, "hydantoinase [4]": {"tested_on": "hydantoinase", "assay": "Metal ion requirements of purified hydantoinase", "assay_type": "biochemical, Ochrobactrum anthropi", "set-up": "Specific activity: unit not given here", "conditions": "hydantoin as substrate, metal ion at 100 mM concentration", "protocol": "Purified hydantoinase was assayed with hydantoin with the addition of the various metal ions at 100 mM concentration."}, "[5]": {"assay": "Stability of enzyme at pH 8.8, 9.3 and 9.8", "assay_type": "biochemical, Ochrobactrum anthropi", "conditions": "then assayed at pH 8.8, 42° C.", "protocol": "Glutaraldehyde treated cells from pH profile study were held at pH 8.8, 9.3 and 9.8 for about 4 hours. Solids were washed, resuspended in 25 mM TAPS pH 8.8 and 10 mg/ml D,L-p-hydroxyphenyl hydantoin and incubated at 42° C. for 4 hours. […] Optimum pH of activity at 8.8 in pH profile study was probably due to greater enzyme stability at pH 8.8 rather than pH 9.3 or 9.8."}, "[6]": {"assay": "Specific activity of purified hydantoinase", "assay_type": "biochemical, Ochrobactrum anthropi", "conditions": "active band eluant from preparative native gel", "protocol": "Active band eluant from preparative native gel was assayed and protein determined by Pierce Microtiter assay protocol using BSA standard. Specific activity was determined at greater than 4 IU per mg of protein."}, "[7]": {"assay": "PI value of hydantoinase by IEF-PAGE", "assay_type": "physicochemical, Ochrobactrum anthropi", "conditions": "IEF-PAGE gel, pH range of 3-9", "protocol": "Active band eluant from preparative native gel was run on the Phast System IEF-PAGE gel with a pH range of 3-9 using low MW protein markers and the gel was silver stained. PI of active band protein was determined at approximately 4.5."}}, "data": [{"molecule": "O=C1NC(=O)C(c2ccc(O)cc2)N1", "note": "(racemic) [D,L-p-hydroxyphenyl hydantoin]", "values": [{"measurement": "product formed", "setting": "hydantoinase [1]; substrate 5 mg/ml, 2¾ hr", "value": 1.9, "unit": "mg/mL"}, {"measurement": "product formed", "setting": "hydantoinase [1]; substrate 5 mg/ml, 30 min", "value": ".56 mg/mL"}, {"measurement": "product formed", "setting": "hydantoinase [1]; substrate 5 mg/ml, 60 min", "value": 1.0, "unit": "mg/mL"}, {"measurement": "product formed", "setting": "hydantoinase [1]; substrate 5 mg/ml, 4 hr", "value": 2.1, "unit": "mg/mL"}, {"measurement": "product formed", "setting": "hydantoinase [1]; substrate 5 mg/ml, 6 hr", "value": 2.2, "unit": "mg/mL"}, {"measurement": "% Conversion", "setting": "hydantoinase [1]; substrate 5 mg/ml", "value": 40, "unit": "%"}, {"measurement": "product formed", "setting": "hydantoinase [1]; substrate 10 mg/ml, 2¾ hr", "value": 3.4, "unit": "mg/mL"}, {"measurement": "product formed", "setting": "hydantoinase [1]; substrate 10 mg/ml, 30 min", "value": ".75 mg/mL"}, {"measurement": "product formed", "setting": "hydantoinase [1]; substrate 10 mg/ml, 60 min", "value": 1.4, "unit": "mg/mL"}, {"measurement": "product formed", "setting": "hydantoinase [1]; substrate 10 mg/ml, 4 hr", "value": 4.0, "unit": "mg/mL"}, {"measurement": "product formed", "setting": "hydantoinase [1]; substrate 10 mg/ml, 6 hr", "value": 4.4, "unit": "mg/mL"}, {"measurement": "% Conversion", "setting": "hydantoinase [1]; substrate 10 mg/ml", "value": 40, "unit": "%"}, {"measurement": "product formed", "setting": "hydantoinase [1]; substrate 20 mg/ml, 2¾ hr", "value": 4.0, "unit": "mg/mL"}, {"measurement": "product formed", "setting": "hydantoinase [1]; substrate 20 mg/ml, 30 min", "value": ".82 mg/mL"}, {"measurement": "product formed", "setting": "hydantoinase [1]; substrate 20 mg/ml, 60 min", "value": 1.5, "unit": "mg/mL"}, {"measurement": "product formed", "setting": "hydantoinase [1]; substrate 20 mg/ml, 4 hr", "value": 6.2, "unit": "mg/mL"}, {"measurement": "product formed", "setting": "hydantoinase [1]; substrate 20 mg/ml, 6 hr", "value": 7.7, "unit": "mg/mL"}, {"measurement": "% Conversion", "setting": "hydantoinase [1]; substrate 20 mg/ml", "value": 35, "unit": "%"}, {"measurement": "product formed", "setting": "hydantoinase [1]; substrate 50 mg/ml, 2¾ hr", "value": 4.2, "unit": "mg/mL"}, {"measurement": "product formed", "setting": "hydantoinase [1]; substrate 50 mg/ml, 30 min", "value": ".95 mg/mL"}, {"measurement": "product formed", "setting": "hydantoinase [1]; substrate 50 mg/ml, 60 min", "value": 1.6, "unit": "mg/mL"}, {"measurement": "product formed", "setting": "hydantoinase [1]; substrate 50 mg/ml, 4 hr", "value": 6.3, "unit": "mg/mL"}, {"measurement": "product formed", "setting": "hydantoinase [1]; substrate 50 mg/ml, 6 hr", "value": 9.2, "unit": "mg/mL"}, {"measurement": "% Conversion", "setting": "hydantoinase [1]; substrate 50 mg/ml", "value": 17, "unit": "%"}]}, {"molecule": "O=C1CNC(=S)N1", "note": "[2-thio hydantoin]", "values": [{"measurement": "Specific activity", "setting": "hydantoinase [2]", "value": 4.3, "unit": "IU/mg"}]}, {"molecule": "CC1NC(=O)NC1=O", "note": "(centres unmarked) [5-methyl hydantoin]", "values": [{"measurement": "Specific activity", "setting": "hydantoinase [2]", "value": 10.6, "unit": "IU/mg"}]}, {"molecule": "CC(C)=O", "note": "[Acetone, acetone]", "values": [{"measurement": "Relative Activity", "setting": "hydantoinase [3]", "value": 2.8}]}, {"molecule": "[Ca+2]", "note": "[Ca (II)]", "values": [{"measurement": "Specific activity", "setting": "hydantoinase [4]", "value": 3.6}]}, {"molecule": "[Co+2]", "note": "[Co (II)]", "values": [{"measurement": "Specific activity", "setting": "hydantoinase [4]", "value": 3.6}]}, {"molecule": "[Cu+2]", "note": "[Cu (II)]", "values": [{"measurement": "Specific activity", "setting": "hydantoinase [4]", "value": 1.2}]}, {"molecule": "O=C(O)CC1NC(=O)NC1=O", "note": "(centres unmarked) [D,L hydantoin 5-acetic acid]", "values": [{"measurement": "Specific activity", "setting": "hydantoinase [2]", "value": 1.8, "unit": "IU/mg"}]}, {"molecule": "[Fe+2]", "note": "[Fe (II)]", "values": [{"measurement": "Specific activity", "setting": "hydantoinase [4]", "value": 9.3}, {"measurement": "effect on the activity of the enzyme", "setting": "hydantoinase [4]", "value": "stimulate the activity"}]}, {"molecule": "[Fe+3]", "note": "[Fe (III)]", "values": [{"measurement": "Specific activity", "setting": "hydantoinase [4]", "value": 3.8}]}, {"molecule": "O=CCCCC=O", "note": "[Glutaraldehyde, glutaraldehyde]", "values": [{"measurement": "Relative Activity", "setting": "hydantoinase [3]", "value": 1.2}]}, {"molecule": "O=C1CNC(=O)N1", "note": "[Hydantoin]", "values": [{"measurement": "Specific activity", "setting": "hydantoinase [2]", "value": 7.5, "unit": "IU/mg"}]}, {"molecule": "[Mg+2]", "note": "[Mg (II)]", "values": [{"measurement": "Specific activity", "setting": "hydantoinase [4]", "value": 5.2}]}, {"molecule": "[Mn+2]", "note": "[Mn (II)]", "values": [{"measurement": "Specific activity", "setting": "hydantoinase [4]", "value": 7.1}, {"measurement": "effect on the activity of the enzyme", "setting": "hydantoinase [4]", "value": "stimulate the activity"}]}, {"molecule": "[Ni+2]", "note": "[Ni (II)]", "values": [{"measurement": "Specific activity", "setting": "hydantoinase [4]", "value": 3.6}]}, {"molecule": "O=C(O)CN(CCN(CC(=O)O)CC(=O)O)CC(=O)O", "note": "[None (EDTA)]", "values": [{"measurement": "Specific activity", "setting": "hydantoinase [4]", "value": 4.8}]}, {"molecule": "O=c1cc[nH]c(=O)[nH]1", "note": "[Uracil]", "values": [{"measurement": "Specific activity", "setting": "hydantoinase [2]", "value": 1.8, "unit": "IU/mg"}]}, {"molecule": "[Zn+2]", "note": "[Zn (II)]", "values": [{"measurement": "Specific activity", "setting": "hydantoinase [4]", "value": 1.8}]}, {"molecule": "Hydroxymethyl 5,5-dimethyl hydantoin", "values": [{"measurement": "Specific activity", "setting": "hydantoinase [2]", "value": 5.6, "unit": "IU/mg"}]}, {"molecule": "p-hydroxymethyl hydantoin", "values": [{"measurement": "Specific activity", "setting": "hydantoinase [2]", "value": 1.9, "unit": "IU/mg"}]}, {"molecule": "B1", "values": [{"measurement": "Relative Activities", "setting": "[5]; held at pH 8.8 for about 4 hours", "value": 1.75}, {"measurement": "Relative Activities", "setting": "[5]; held at pH 9.3 for about 4 hours", "value": 1.17}, {"measurement": "Relative Activities", "setting": "[5]; held at pH 9.8 for about 4 hours", "value": 0.62}, {"measurement": "Specific activity", "setting": "[6]", "value": "greater than 4 IU per mg of protein"}, {"measurement": "PI", "setting": "[7]", "value": "approximately 4.5"}]}]}
